Structures are written as SMILES.

The target of assay [1] is T1, SMYD3 (Homo sapiens (Human), UniProt Q9H7B4). Briefly: SMYD3 cell assay (Trimethyl-MEKK2 In-Cell Western in 293T/17 cells). In kind it is cell-based. An outline of the steps: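 In-Cell Western ratio of trimethyl-Lys260 MEKK2 to anti-flag signal; percent inhibition from DMSO and maximum-inhibition controls, IC50 by non-linear regression, triplicates.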
Assay [2] concerns the target T1, SMYD3. Kind of assay: SMYD3 biochemical assay (SPA, 3H-SAM methylation of MEKK2 protein substrate). The following applies: read-out: SMYD3 Biochem IC50 (μM)*. A digest of the protocol: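 Native full-length human SMYD3 (E. coli-expressed, tags removed) was preincubated with compound for 30 min at room temperature in 25 mM Tris-Cl pH 8.0, 1 mM TCEP, 0.005% BSG, 0.005% Tween 20. Reaction was started with 3H-SAM plus GST-MEKK2, quenched with 100 uM unlabeled SAM, and read by SPA scintillation counting.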

Setting [3] is: 293T/17 cells, read-out: SMYD3 Cell IC50 (μM)*.

T1 sequence (Q9H7B4 whole entry): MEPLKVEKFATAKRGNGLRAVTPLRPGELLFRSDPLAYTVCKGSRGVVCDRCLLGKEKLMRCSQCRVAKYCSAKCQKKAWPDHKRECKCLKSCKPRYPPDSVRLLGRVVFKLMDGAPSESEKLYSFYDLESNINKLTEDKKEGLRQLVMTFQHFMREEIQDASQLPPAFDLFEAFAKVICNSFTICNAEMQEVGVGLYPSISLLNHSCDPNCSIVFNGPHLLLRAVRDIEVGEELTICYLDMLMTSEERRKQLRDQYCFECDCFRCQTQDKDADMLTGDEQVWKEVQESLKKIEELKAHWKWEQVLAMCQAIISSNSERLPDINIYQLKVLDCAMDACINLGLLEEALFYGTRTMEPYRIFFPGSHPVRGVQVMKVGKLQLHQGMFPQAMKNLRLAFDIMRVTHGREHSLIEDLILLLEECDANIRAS

As to `C[C@H]1C[C@@H](NC(=O)c2cc(C3CC3)on2)CCN1C(=O)CC(C)(C)CN` [compound 337, N-((2S,4S)-1-(4-amino-3,3-dimethylbutanoyl)-2-methylpiperidin-4-yl)-5-cyclopropylisoxazole-3-carboxamide], the values for the half-inhibitory concentration (IC50) at SMYD3 [1] (setting [3]) and on SMYD3 [2] were 13 µM and 0.961 µM, respectively.

On to `C[C@H]1C[C@@H](NC(=O)c2cc(C3CC3)on2)CCN1C(=O)c1ccc2[nH]cnc2c1` [compound 340, N-((2S,4S)-1-(1H-benzo[d]imidazole-5-carbonyl)-2-methylpiperidin-4-yl)-5-cyclopropylisoxazole-3-carboxamide], for which the figures for the half-inhibitory concentration (IC50) on SMYD3 [1] (setting [3]) and on SMYD3 [2] were above 40 µM and above 10 µM, respectively.

As for `C[C@@H]1C[C@H](NC(=O)c2cc(C3CC3)on2)CCN1C(=O)c1ccc2[nH]cnc2c1` [compound 341, N-((2R,4R)-1-(1H-benzo[d]imidazole-5-carbonyl)-2-methylpiperidin-4-yl)-5-cyclopropylisoxazole-3-carboxamide], the results for the concentration for half-maximal inhibition (IC50) on SMYD3 [1] (setting [3]) and at SMYD3 [2] were 6.01 µM and 1 µM, respectively.

For `O=C(N[C@@H]1CCN(C(=O)CC2CCNCC2)[C@H](Cc2ccccc2)C1)c1cc(C2CC2)on1` [compound 349, N-((2R,4R)-2-benzyl-1-(2-(piperidin-4-yl)acetyl)piperidin-4-yl)-5-cyclopropylisoxazole-3-carboxamide], the half-maximal inhibitory concentration (IC50) on SMYD3 [1] (setting [3]) was above 40 µM; on SMYD3 [2] it was 2.27 µM.

With `C[C@@H]1C[C@H](NC(=O)c2cc(C3CC3)on2)CCN1S(=O)(=O)c1ccccc1` [compound 351, 5-cyclopropyl-N-((2R,4R)-2-methyl-1-(phenylsulfonyl)piperidin-4-yl)isoxazole-3-carboxamide], the IC50 came to 7.83 µM on SMYD3 [1] (setting [3]) and 3.09 µM at SMYD3 [2].

As for `C[C@H]1C[C@@H](NC(=O)c2cc(C3CC3)on2)CCN1S(=O)(=O)c1ccccc1` [compound 352, 5-cyclopropyl-N-((2S,4S)-2-methyl-1-(phenylsulfonyl)piperidin-4-yl)isoxazole-3-carboxamide], the values for the IC50 at SMYD3 [1] (setting [3]) and on SMYD3 [2] were 0.996 µM and 0.152 µM, respectively.

Consider `C[C@@H]1C[C@H](NC(=O)c2cc(C3CC3)on2)CCN1S(=O)(=O)c1cccc(C#N)c1` [compound 354, N-((2R,4R)-1-((3-cyanophenyl)sulfonyl)-2-methylpiperidin-4-yl)-5-cyclopropylisoxazole-3-carboxamide], for which the IC50 at SMYD3 [1] (setting [3]) amounted to 5.65 µM; on SMYD3 [2] it was 1.14 µM.

As for `C[C@H](C(=O)N1CC[C@H](NC(=O)c2cc(C3CC3)on2)C[C@@H]1C)C1CCNCC1` [compound 360, 5-cyclopropyl-N-((2S,4S)-2-methyl-1-((S)-2-(piperidin-4-yl)propanoyl)piperidin-4-yl)isoxazole-3-carboxamide], the concentration for half-maximal inhibition (IC50) at SMYD3 [1] (setting [3]) came to 8.28 µM; on SMYD3 [2], 0.792 µM.

Turning to `C[C@@H](C(=O)N1CC[C@H](NC(=O)c2cc(C3CC3)on2)C[C@@H]1C)C1CCNCC1` [compound 361, 5-cyclopropyl-N-((2S,4S)-2-methyl-1-((R)-2-(piperidin-4-yl)propanoyl)piperidin-4-yl)isoxazole-3-carboxamide], the IC50 at SMYD3 [1] (setting [3]) was 13.6 µM; on SMYD3 [2], 1.36 µM.

As for `C[C@@H]1C[C@H](NC(=O)c2cc(C3CC3)on2)CCN1C(=O)c1cccc(C(C)(C)N)c1` [compound 365, N-((2R,4R)-1-(3-(2-aminopropan-2-yl)benzoyl)-2-methylpiperidin-4-yl)-5-cyclopropylisoxazole-3-carboxamide], the IC50 on SMYD3 [1] (setting [3]) turned out to be 3.88 µM; at SMYD3 [2], 0.454 µM.

Turning to `C[C@H]1C[C@@H](NC(=O)c2cc(C3CC3)on2)CCN1C(=O)c1cccc(C(C)(C)N)c1` [compound 367, N-((2S,4S)-1-(3-(2-aminopropan-2-yl)benzoyl)-2-methylpiperidin-4-yl)-5-cyclopropylisoxazole-3-carboxamide], the concentration for half-maximal inhibition (IC50) on SMYD3 [1] (setting [3]) turned out to be 30.6 µM; at SMYD3 [2], 4.29 µM.

Consider `C[C@@H]1C[C@H](NC(=O)c2cc(C3CC3)on2)CCN1C(=O)c1ccc(C(C)(C)N)cc1` [compound 368, N-((2R,4R)-1-(4-(2-aminopropan-2-yl)benzoyl)-2-methylpiperidin-4-yl)-5-cyclopropylisoxazole-3-carboxamide], for which the IC50 on SMYD3 [1] (setting [3]) stood at 1.04 µM; at SMYD3 [2] it was 0.122 µM.

Turning to `C[C@H]1C[C@@H](NC(=O)c2cc(C3CC3)on2)CCN1C(=O)c1ccc(C(C)(C)N)cc1` [compound 370, N-((2S,4S)-1-(4-(2-aminopropan-2-yl)benzoyl)-2-methylpiperidin-4-yl)-5-cyclopropylisoxazole-3-carboxamide], the results for the half-inhibitory concentration (IC50) on SMYD3 [1] (setting [3]) and at SMYD3 [2] were above 40 µM and 4.39 µM, respectively.

For `C[C@H]1C[C@@H](NC(=O)c2cc(C3CC3)on2)CCN1C(=O)C1CCCC(CN)C1` (stereo partly drawn) [compound 373, N-((2S,4S)-1-(3-(aminomethyl)cyclohexane-1-carbonyl)-2-methylpiperidin-4-yl)-5-cyclopropylisoxazole-3-carboxamide], the 50% inhibitory concentration (IC50) at SMYD3 [1] (setting [3]) stood at 29.8 µM; on SMYD3 [2], 2.47 µM.

On to `CC(=O)Nc1ccc(S(=O)(=O)N2CC[C@@H](NC(=O)c3cc(C4CC4)on3)C[C@@H]2C)cc1` [compound 377, N-((2S,4R)-1-((4-acetamidophenyl)sulfonyl)-2-methylpiperidin-4-yl)-5-cyclopropylisoxazole-3-carboxamide], for which the concentration for half-maximal inhibition (IC50) was 27.6 µM at SMYD3 [1] (setting [3]) and above 10 µM at SMYD3 [2].

Consider `CC(=O)Nc1ccc(S(=O)(=O)N2CC[C@H](NC(=O)c3cc(C4CC4)on3)C[C@@H]2C)cc1` [compound 378, N-((2S,4S)-1-((4-acetamidophenyl)sulfonyl)-2-methylpiperidin-4-yl)-5-cyclopropylisoxazole-3-carboxamide], for which the half-inhibitory concentration (IC50) at SMYD3 [1] (setting [3]) came to 2.74 µM; at SMYD3 [2] it was 0.577 µM.

Regarding `CC(C)CN(C)c1ccc(S(=O)(=O)N2CC[C@H](NC(=O)c3cc(C4CC4)on3)C[C@@H]2C)cn1` [compound 381, 5-cyclopropyl-N-((2S,4S)-1-((6-(isobutyl(methyl)amino)pyridin-3-yl)sulfonyl)-2-methylpiperidin-4-yl)isoxazole-3-carboxamide], the IC50 at SMYD3 [1] (setting [3]) was above 40 µM; on SMYD3 [2], above 10 µM.

On to `C[C@H]1CN(S(=O)(=O)CCCN)CC[C@@H]1NC(=O)c1cc(C2CC2)on1` [compound 385, N-((3S,4S)-1-((3-aminopropyl)sulfonyl)-3-methylpiperidin-4-yl)-5-cyclopropylisoxazole-3-carboxamide], for which the values for the IC50 against SMYD3 [1] and at SMYD3 [2] were 1.23 µM and 0.0882 µM, respectively.

Take `C[C@@H]1CN(S(=O)(=O)CCCN)CC[C@@H]1NC(=O)c1cc(C2CC2)on1` [compound 387, N-((3R,4S)-1-((3-aminopropyl)sulfonyl)-3-methylpiperidin-4-yl)-5-cyclopropylisoxazole-3-carboxamide]: the IC50 was 0.788 µM against SMYD3 [1] and 0.07 µM at SMYD3 [2].

`NCCCS(=O)(=O)N1CC[C@@H](NC(=O)c2cc(C3CC3)on2)C[C@H]1Cc1ccccc1` [compound 390, N-((2R,4R)-1-((3-aminopropyl)sulfonyl)-2-benzylpiperidin-4-yl)-5-cyclopropylisoxazole-3-carboxamide]: the figures for the IC50 on SMYD3 [1] (setting [3]) and on SMYD3 [2] were 2.97 µM and 0.464 µM, respectively.

`C[C@H]1C[C@@H](NC(=O)c2cc(C3CC3)on2)CCN1C(=O)CC1(CN)CCCCC1` [compound 391, N-((2S,4S)-1-(2-(1-(aminomethyl)cyclohexyl)acetyl)-2-methylpiperidin-4-yl)-5-cyclopropylisoxazole-3-carboxamide]: the half-inhibitory concentration (IC50) on SMYD3 [1] (setting [3]) is above 10 µM; at SMYD3 [2], 5.72 µM.

Turning to `NCCS(=O)(=O)N1[C@@H]2CC[C@H]1C[C@H](NC(=O)c1cc(C3CC3)on1)C2` [compound 395, N-((1R,3s,5S)-8-((2-aminoethyl)sulfonyl)-8-azabicyclo[3.2.1]octan-3-yl)-5-cyclopropylisoxazole-3-carboxamide], the IC50 came out at 3.16 µM at SMYD3 [1] (setting [3]) and 0.611 µM at SMYD3 [2].

Consider `NCCS(=O)(=O)N1[C@@H]2CC[C@H]1C[C@@H](NC(=O)c1cc(C3CC3)on1)C2` [compound 396, N-((1R,3r,5S)-8-((2-aminoethyl)sulfonyl)-8-azabicyclo[3.2.1]octan-3-yl)-5-cyclopropylisoxazole-3-carboxamide], for which the 50% inhibitory concentration (IC50) on SMYD3 [1] (setting [3]) worked out at 0.375 µM; on SMYD3 [2], 0.0417 µM.

Regarding `CC(=O)Nc1ccc(S(=O)(=O)N2CC[C@H](NC(=O)c3cc(C4CC4)on3)C[C@H]2C)cc1` [compound 397, N-((2R,4S)-1-((4-acetamidophenyl)sulfonyl)-2-methylpiperidin-4-yl)-5-cyclopropylisoxazole-3-carboxamide], the concentration for half-maximal inhibition (IC50) on SMYD3 [1] (setting [3]) and on SMYD3 [2] was above 10 µM throughout.

Regarding `C[C@H]1C[C@@H](NC(=O)c2cc(C3CC3)on2)CCN1S(=O)(=O)c1cccc(C#N)c1` [compound 398, N-((2S,4S)-1-((3-cyanophenyl)sulfonyl)-2-methylpiperidin-4-yl)-5-cyclopropylisoxazole-3-carboxamide], the IC50 turned out to be 1.21 µM on SMYD3 [1] (setting [3]) and 0.212 µM at SMYD3 [2].

As for `O=C(N[C@@H]1C[C@H]2CC[C@@H](C1)N2S(=O)(=O)c1ccccc1)c1cc(C2CC2)on1` [compound 399, 5-cyclopropyl-N-((1R,3s,5S)-8-(phenylsulfonyl)-8-azabicyclo[3.2.1]octan-3-yl)isoxazole-3-carboxamide], the IC50 on SMYD3 [1] (setting [3]) is 2.87 µM; at SMYD3 [2], 0.833 µM.

`O=C(N[C@H]1C[C@H]2CC[C@@H](C1)N2S(=O)(=O)c1ccccc1)c1cc(C2CC2)on1` [compound 400, 5-cyclopropyl-N-((1R,3r,5S)-8-(phenylsulfonyl)-8-azabicyclo[3.2.1]octan-3-yl)isoxazole-3-carboxamide]: the IC50 on SMYD3 [1] (setting [3]) was above 10 µM; on SMYD3 [2], 4.13 µM.

As for `O=C(NC1CC2CCCC(C1)N2S(=O)(=O)c1ccccc1)c1cc(C2CC2)on1` (centres unmarked) [compound 401, 5-cyclopropyl-N-(9-(phenylsulfonyl)-9-azabicyclo[3.3.1]nonan-3-yl)isoxazole-3-carboxamide], the IC50 amounted to 2.95 µM at SMYD3 [1] (setting [3]) and 0.793 µM at SMYD3 [2].
